Source: patent publication EP0877022A1, “Synthesis of the sulfonylpyrimidine derivatives with anticancer activity” (Herbos d.d., priority 1997, dated 1998)
Like-named read-outs stand apart in the source and are kept apart here.

Columns and labels:
Format in all cases: cell-based
[1] = test system: human cervix carcinoma (HeLa); assay: Growth inhibitory effects on HeLa cells (MTT staining); conditions: concentration 10^-5 M, read-out: inhibition of cell growth
Procedure: (§1) Cell lines. Human tumor pancreatic carcinoma cells (MiaPaCa 2), laryngeal carcinoma (Hep 2), human cervical carcinoma (HeLa) and normal human fibroblasts (Hef 2) were grown as monolayers at 37 °C in a humidified atmosphere with 5% CO2 in DMEM supplemented with 10% fetal calf serum, 2 mM glutamine, 100 U/ml penicillin and […] streptomycin.
(§2) Cell Cytotoxicity. To the purpos of the experiments the cells ([…]; 2x10^4 cells/ml) were plated onto 96-microwell plates. After 24 hours, test compounds at different concentrations (10^-4-10^-8 M), were added to the cells. Three days later, cell viability was determined by […]. The control cells were grown under same conditions without addition of test compounds. […] This method depends on the conversion of a water-soluble tetrazolium salt (MTT) to a purple colored formazan precipitate. The reaction affected by dehydrogenase enzymes active only in living cells. Tests were carried out in 96-well microculture plates. 10^4 viable tumor cells per well at 4 h incubation time 20 µg MTT7100 µl total medium volume. Formazan crystals were dissolved in DMSO and the plates were immediately measured on a microculture plate reader at 540 nm.

[2] = test system: laryngeal carcinoma (Hep 2); assay: Growth inhibitory effects on Hep 2 cells (MTT staining); conditions: Homo sapiens, concentration 10^-5 M, read-out: inhibition of cell growth
Procedure: as §1, §2

[3] = test system: human tumor pancreatic carcinoma (MiaPaCa 2); assay: Growth inhibitory effects on MiaPaCa 2 cells (MTT staining); conditions: MIA PaCa-2, concentration 10^-5 M, read-out: inhibition of cell growth
Procedure: as §1, §2

[4] = test system: normal human fibroblasts (Hef 2); assay: Growth inhibitory effects on normal Hef 2 fibroblasts (MTT staining); conditions: Fibroblast, Hef 2 normal cells, concentration 10^-5 M, read-out: inhibition of cell growth
Procedure: as §1, §2

Row | SMILES | inhibition at 10 µM [1] [%] | inhibition at 10 µM ([2]; Hep 2) [%] | inhibition at 10 µM [3] [%] | inhibition at 10 µM ([2]; HEp-2, Hep 2) [%] | inhibition at 10 µM [4] [%]
1 | Cc1ccc(S(=O)(=O)n2cc(Br)c(=O)[nH]c2=O)cc1 [compound 2] | 85 | 20 | 80 |  | 
2 | Cc1ccc(S(=O)(=O)n2ccc(N)nc2=O)cc1 [compound 4] | 85 |  | 65 | 20 | 20
